# ChEMBL document CHEMBL4507267 (2021)
# Key:
# [1] = target: Serine/threonine-protein kinase BRSK2 (Homo sapiens) (UniProt Q8IWQ3); details: Compound concentration 1000.0 nM
# [2] = target: Wee1-like protein kinase (Homo sapiens) (UniProt P30291); details: Compound concentration 1000.0 nM
# [3] = target: Cyclin-dependent kinase 13 (Homo sapiens) (UniProt Q14004); details: Compound concentration 1000.0 nM
# [4] = target: Serine/threonine-protein kinase MAK (Homo sapiens) (UniProt P20794); details: Compound concentration 1000.0 nM
# Sequence of Serine/threonine-protein kinase MAK (Homo sapiens) (P20794 whole entry): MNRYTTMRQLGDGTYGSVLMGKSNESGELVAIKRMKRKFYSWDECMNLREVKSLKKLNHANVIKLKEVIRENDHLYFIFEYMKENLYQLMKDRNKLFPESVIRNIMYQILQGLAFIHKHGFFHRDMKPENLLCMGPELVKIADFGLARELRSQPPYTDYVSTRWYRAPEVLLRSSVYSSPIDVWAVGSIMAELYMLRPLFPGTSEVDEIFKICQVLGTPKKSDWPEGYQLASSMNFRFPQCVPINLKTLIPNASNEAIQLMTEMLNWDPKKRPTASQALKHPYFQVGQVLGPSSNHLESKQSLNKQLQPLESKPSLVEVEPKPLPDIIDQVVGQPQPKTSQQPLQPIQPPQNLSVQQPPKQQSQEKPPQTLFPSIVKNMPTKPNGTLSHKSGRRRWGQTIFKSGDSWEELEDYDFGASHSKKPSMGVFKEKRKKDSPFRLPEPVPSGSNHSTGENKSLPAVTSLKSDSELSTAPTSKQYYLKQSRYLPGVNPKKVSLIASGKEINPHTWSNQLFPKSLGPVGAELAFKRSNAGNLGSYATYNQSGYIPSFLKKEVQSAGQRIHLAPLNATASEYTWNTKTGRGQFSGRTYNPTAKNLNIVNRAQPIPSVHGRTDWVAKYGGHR
# [5] = system: Epidermal growth factor receptor (Homo sapiens), P00533 [UNDEFINED MUTATION]; details: Compound concentration 1000.0 nM
# [6] = target: Mitogen-activated protein kinase kinase kinase kinase 2 (Homo sapiens) (UniProt Q12851); details: Compound concentration 1000.0 nM
# [7] = target: Dual specificity protein kinase CLK3 (Homo sapiens) (UniProt P49761); details: Compound concentration 1000.0 nM
# [8] = target: Tyrosine-protein kinase Lck (Homo sapiens) (UniProt P06239); details: Compound concentration 1000.0 nM
# Sequence of Tyrosine-protein kinase Lck (Homo sapiens) (P06239 2-509 limits assumed): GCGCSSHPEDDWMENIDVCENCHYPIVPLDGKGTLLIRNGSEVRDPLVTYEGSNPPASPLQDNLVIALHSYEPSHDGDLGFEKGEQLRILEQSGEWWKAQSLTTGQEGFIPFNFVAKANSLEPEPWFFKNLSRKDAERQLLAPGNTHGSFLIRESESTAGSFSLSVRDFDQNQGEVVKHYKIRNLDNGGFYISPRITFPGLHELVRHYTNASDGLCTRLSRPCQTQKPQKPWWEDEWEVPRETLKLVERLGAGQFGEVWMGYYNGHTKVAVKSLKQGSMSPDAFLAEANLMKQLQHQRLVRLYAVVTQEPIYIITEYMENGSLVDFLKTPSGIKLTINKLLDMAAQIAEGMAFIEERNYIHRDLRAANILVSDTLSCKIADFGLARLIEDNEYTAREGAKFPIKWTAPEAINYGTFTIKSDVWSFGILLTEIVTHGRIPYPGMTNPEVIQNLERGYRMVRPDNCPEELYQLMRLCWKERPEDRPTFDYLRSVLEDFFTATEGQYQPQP
# [9] = system: Mast/stem cell growth factor receptor Kit (Homo sapiens), P10721 [D816H]; details: Compound concentration 1000.0 nM
# [10] = target: Alpha-2C adrenergic receptor (Homo sapiens) (UniProt P18825); details: Compound concentration 10.0 uM
# [11] = target: Mitogen-activated protein kinase 1 (Homo sapiens) (UniProt P28482); details: Compound concentration 1000.0 nM
# [12] = target: Bone morphogenetic protein receptor type-2 (Homo sapiens) (UniProt Q13873); details: Compound concentration 1000.0 nM
# [13] = target: Calcium/calmodulin-dependent protein kinase type 1D (Homo sapiens) (UniProt Q8IU85); details: Compound concentration 1000.0 nM
# Sequence of Calcium/calmodulin-dependent protein kinase type 1D (Homo sapiens) (Q8IU85 whole entry, looked up): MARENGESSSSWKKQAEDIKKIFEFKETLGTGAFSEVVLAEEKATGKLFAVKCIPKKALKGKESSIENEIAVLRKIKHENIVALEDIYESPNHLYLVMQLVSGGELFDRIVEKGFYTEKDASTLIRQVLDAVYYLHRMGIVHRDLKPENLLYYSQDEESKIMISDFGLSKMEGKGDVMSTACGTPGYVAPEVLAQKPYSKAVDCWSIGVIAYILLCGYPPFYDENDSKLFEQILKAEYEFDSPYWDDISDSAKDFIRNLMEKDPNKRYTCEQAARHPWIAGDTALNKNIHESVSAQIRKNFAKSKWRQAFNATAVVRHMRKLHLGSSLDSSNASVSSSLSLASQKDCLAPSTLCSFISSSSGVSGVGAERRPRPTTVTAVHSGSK
# [14] = target: Serine/threonine-protein kinase RIO2 (Homo sapiens) (UniProt Q9BVS4); details: Compound concentration 1000.0 nM
# Sequence of Serine/threonine-protein kinase RIO2 (Homo sapiens) (Q9BVS4 whole entry, looked up): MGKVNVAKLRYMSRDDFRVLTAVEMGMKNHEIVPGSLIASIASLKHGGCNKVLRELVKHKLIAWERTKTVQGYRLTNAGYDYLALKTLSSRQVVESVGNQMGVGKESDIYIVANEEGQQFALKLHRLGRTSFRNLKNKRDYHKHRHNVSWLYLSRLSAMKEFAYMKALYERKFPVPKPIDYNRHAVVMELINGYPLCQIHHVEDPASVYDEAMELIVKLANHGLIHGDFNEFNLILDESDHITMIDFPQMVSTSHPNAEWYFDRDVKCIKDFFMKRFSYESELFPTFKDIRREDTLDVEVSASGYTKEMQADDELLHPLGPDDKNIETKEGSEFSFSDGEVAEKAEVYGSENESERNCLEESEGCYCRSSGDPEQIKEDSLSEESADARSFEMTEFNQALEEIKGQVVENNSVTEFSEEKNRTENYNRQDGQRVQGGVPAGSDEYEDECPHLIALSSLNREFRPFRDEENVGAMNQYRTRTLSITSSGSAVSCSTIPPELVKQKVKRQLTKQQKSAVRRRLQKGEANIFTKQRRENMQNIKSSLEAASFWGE
# [15] = target: SRSF protein kinase 1 (Homo sapiens) (UniProt Q96SB4); details: Compound concentration 1000.0 nM
# [16] = target: Inhibitor of nuclear factor kappa-B kinase subunit alpha (Homo sapiens) (UniProt O15111); details: Compound concentration 1000.0 nM
# [17] = target: Fibroblast growth factor receptor 3 (Homo sapiens) (UniProt P22607); details: Compound concentration 1000.0 nM
# [18] = system: Phosphatidylinositol 4,5-bisphosphate 3-kinase catalytic subunit alpha isoform (Homo sapiens), P42336 [Q546K]; details: Compound concentration 1000.0 nM
# [19] = target: Kappa-type opioid receptor (Homo sapiens) (UniProt P41145); details: Compound concentration 10.0 uM
# [20] = target: Interleukin-1 receptor-associated kinase 4 (Homo sapiens) (UniProt Q9NWZ3); details: Compound concentration 1000.0 nM
# Sequence of Interleukin-1 receptor-associated kinase 4 (Homo sapiens) (Q9NWZ3 whole entry): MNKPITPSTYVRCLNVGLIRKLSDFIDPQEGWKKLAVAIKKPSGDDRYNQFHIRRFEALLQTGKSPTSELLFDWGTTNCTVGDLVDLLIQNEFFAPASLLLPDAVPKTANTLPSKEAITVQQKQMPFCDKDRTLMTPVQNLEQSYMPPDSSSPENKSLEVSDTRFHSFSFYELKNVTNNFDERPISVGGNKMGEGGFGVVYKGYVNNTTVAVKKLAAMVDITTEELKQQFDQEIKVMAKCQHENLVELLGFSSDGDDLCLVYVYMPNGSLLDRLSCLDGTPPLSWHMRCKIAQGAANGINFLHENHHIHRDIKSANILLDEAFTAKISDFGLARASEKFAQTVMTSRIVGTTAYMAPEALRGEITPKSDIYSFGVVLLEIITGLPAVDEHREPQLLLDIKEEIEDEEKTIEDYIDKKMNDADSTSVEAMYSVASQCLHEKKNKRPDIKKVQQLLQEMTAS
# [21] = target: NUAK family SNF1-like kinase 1 (Homo sapiens) (UniProt O60285); details: Compound concentration 1000.0 nM
# [22] = target: Ephrin type-B receptor 2 (Homo sapiens) (UniProt P29323); details: Compound concentration 1000.0 nM
# [23] = target: TGF-beta receptor type-1 (Homo sapiens) (UniProt P36897); details: Compound concentration 1000.0 nM
# [24] = target: Serine/threonine-protein kinase Nek5 (Homo sapiens) (UniProt Q6P3R8); details: Compound concentration 1000.0 nM
# Sequence of Serine/threonine-protein kinase Nek5 (Homo sapiens) (Q6P3R8 whole entry): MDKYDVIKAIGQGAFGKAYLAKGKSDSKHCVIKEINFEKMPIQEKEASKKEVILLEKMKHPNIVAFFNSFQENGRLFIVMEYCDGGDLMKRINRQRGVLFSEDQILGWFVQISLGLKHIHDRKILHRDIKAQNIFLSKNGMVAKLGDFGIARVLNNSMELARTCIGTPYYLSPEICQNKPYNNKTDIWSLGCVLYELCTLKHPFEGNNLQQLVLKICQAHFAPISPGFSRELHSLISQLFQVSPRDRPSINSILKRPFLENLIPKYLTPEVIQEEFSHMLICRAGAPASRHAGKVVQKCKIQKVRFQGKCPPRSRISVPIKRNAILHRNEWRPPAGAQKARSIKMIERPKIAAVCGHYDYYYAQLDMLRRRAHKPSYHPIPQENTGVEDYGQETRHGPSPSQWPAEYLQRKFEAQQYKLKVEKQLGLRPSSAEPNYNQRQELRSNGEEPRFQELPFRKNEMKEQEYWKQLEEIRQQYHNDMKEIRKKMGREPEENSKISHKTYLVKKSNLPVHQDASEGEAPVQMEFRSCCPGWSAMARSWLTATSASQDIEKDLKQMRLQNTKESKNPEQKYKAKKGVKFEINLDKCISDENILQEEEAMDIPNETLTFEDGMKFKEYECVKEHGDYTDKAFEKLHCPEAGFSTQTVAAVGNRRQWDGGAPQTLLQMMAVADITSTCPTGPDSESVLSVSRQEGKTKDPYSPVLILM
# [25] = target: Ribosomal protein S6 kinase alpha-2 (Homo sapiens) (UniProt Q15349); details: Compound concentration 1000.0 nM
# [26] = target: Misshapen-like kinase 1 (Homo sapiens) (UniProt Q8N4C8); details: Compound concentration 1000.0 nM
# [27] = target: Serine/threonine-protein kinase ICK (Homo sapiens) (UniProt Q9UPZ9); details: Compound concentration 1000.0 nM
# [28] = target: Phosphatidylinositol 4,5-bisphosphate 3-kinase catalytic subunit beta isoform (Homo sapiens) (UniProt P42338); details: Compound concentration 1000.0 nM
# [29] = target: Proto-oncogene tyrosine-protein kinase ROS (Homo sapiens) (UniProt P08922); details: Compound concentration 1000.0 nM
# [30] = target: Activin receptor type-1B (Homo sapiens) (UniProt P36896); details: Compound concentration 1000.0 nM
# [31] = target: Ribosomal protein S6 kinase alpha-3 (Homo sapiens) (UniProt P51812); details: Compound concentration 1000.0 nM
# [32] = target: Receptor tyrosine-protein kinase erbB-2 (Homo sapiens) (UniProt P04626); details: Compound concentration 1000.0 nM
# Sequence of Receptor tyrosine-protein kinase erbB-2 (Homo sapiens) (P04626 whole entry): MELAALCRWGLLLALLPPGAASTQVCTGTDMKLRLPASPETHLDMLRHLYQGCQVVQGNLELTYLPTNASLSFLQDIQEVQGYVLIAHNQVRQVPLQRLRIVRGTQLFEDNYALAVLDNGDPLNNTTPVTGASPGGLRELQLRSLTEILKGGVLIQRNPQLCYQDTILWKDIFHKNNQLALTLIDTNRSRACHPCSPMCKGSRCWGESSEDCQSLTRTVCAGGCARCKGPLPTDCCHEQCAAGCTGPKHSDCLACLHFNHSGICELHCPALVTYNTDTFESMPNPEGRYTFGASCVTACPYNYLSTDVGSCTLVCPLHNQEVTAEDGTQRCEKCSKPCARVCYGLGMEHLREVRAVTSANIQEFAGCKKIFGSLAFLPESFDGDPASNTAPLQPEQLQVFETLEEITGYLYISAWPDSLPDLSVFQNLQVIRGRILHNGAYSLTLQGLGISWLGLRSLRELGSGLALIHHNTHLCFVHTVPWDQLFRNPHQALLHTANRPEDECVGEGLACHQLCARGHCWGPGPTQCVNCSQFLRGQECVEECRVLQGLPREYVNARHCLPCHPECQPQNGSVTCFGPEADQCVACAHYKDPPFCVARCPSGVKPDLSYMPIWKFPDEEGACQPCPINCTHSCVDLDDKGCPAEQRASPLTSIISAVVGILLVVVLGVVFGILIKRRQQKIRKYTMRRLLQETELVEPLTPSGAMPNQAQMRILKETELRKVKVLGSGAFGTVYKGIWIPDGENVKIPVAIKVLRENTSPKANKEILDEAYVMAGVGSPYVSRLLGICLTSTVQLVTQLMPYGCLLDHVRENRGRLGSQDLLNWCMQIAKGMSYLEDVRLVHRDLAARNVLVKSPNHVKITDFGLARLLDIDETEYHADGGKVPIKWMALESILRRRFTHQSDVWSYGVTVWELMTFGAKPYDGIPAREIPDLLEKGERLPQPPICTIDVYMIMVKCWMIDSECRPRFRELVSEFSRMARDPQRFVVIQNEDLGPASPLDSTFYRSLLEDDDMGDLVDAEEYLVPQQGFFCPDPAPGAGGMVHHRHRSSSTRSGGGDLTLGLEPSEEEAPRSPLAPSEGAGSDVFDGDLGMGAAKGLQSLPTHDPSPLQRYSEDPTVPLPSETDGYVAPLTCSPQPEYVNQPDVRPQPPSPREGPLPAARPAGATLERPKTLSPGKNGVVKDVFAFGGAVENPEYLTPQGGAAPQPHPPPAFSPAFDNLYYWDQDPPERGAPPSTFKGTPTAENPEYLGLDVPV
# [33] = target: Serine/threonine-protein kinase PAK 6 (Homo sapiens) (UniProt Q9NQU5); details: Compound concentration 1000.0 nM
# [34] = target: 3-phosphoinositide-dependent protein kinase 1 (Homo sapiens) (UniProt O15530); details: Compound concentration 1000.0 nM
# Sequence of 3-phosphoinositide-dependent protein kinase 1 (Homo sapiens) (O15530 whole entry): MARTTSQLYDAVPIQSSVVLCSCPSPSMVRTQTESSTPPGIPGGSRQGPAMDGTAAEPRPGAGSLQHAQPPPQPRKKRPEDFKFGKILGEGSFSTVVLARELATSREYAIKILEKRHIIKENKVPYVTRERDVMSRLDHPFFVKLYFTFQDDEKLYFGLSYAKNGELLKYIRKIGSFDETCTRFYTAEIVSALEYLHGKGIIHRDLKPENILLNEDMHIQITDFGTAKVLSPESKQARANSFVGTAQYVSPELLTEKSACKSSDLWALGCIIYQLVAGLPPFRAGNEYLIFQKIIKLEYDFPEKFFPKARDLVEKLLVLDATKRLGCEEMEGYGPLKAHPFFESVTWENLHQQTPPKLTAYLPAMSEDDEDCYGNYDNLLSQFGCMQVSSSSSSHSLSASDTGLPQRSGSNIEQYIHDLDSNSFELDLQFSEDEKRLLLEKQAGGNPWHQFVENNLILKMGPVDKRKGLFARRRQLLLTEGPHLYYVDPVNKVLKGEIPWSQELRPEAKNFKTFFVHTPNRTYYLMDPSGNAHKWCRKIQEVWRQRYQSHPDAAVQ
# [35] = target: Muscarinic acetylcholine receptor M3 (Homo sapiens) (UniProt P20309); details: Compound concentration 10.0 uM
# [36] = system: eIF-2-alpha kinase GCN2 (Homo sapiens), Q9P2K8 [S808G]; details: Compound concentration 1000.0 nM
# [37] = target: Serine/threonine-protein kinase pim-3 (Homo sapiens) (UniProt Q86V86); details: Compound concentration 1000.0 nM
# [38] = target: GABA-A receptor; anion channel (Rattus norvegicus) (UniProt O09028+P15431+P18506+P18508+P19969+P20236+P23574+P23576+P28471+P28473+P30191+P62813+P63079+P63138+Q91ZM7+Q9ES14); details: Compound concentration 10.0 uM
# [39] = target: Tyrosine-protein kinase Fer (Homo sapiens) (UniProt P16591); details: Compound concentration 1000.0 nM
# [40] = target: Mitogen-activated protein kinase kinase kinase 15 (Homo sapiens) (UniProt Q6ZN16); details: Compound concentration 1000.0 nM
# [41] = target: Casein kinase II subunit alpha (Homo sapiens) (UniProt P68400); details: Compound concentration 1000.0 nM
# [42] = target: Mitogen-activated protein kinase kinase kinase kinase 3 (Homo sapiens) (UniProt Q8IVH8); details: Compound concentration 1000.0 nM
# [43] = system: Epidermal growth factor receptor (Homo sapiens), P00533 [T790M]; details: Compound concentration 1000.0 nM
# [44] = system: Epidermal growth factor receptor (Homo sapiens), P00533 [L858R]; details: Compound concentration 1000.0 nM
smiles,measurement,setting,value
Cc1c(NC(=O)c2cc(C(N)=O)nc3cc(F)ccc23)c(C(F)(F)F)nn1Cc1ccc(C(C)(C)C)cc1 [BAY-588],residual activity,[1],100%
same,residual activity,[2],100%
same,residual activity,[3],100%
same,residual activity,[4],85%
same,residual activity,[5],100%
same,residual activity,[6],100%
same,residual activity,[7],100%
same,residual activity,[8],100%
same,residual activity,[9],100%
same,inhibition,[10],2.11%
same,residual activity,[11],71%
same,residual activity,[12],100%
same,residual activity,[13],84%
same,residual activity,[14],76%
same,residual activity,[15],100%
same,residual activity,[16],100%
same,residual activity,[17],92%
same,residual activity,[18],32%
same,inhibition,[19],22.1%
same,residual activity,[20],100%
same,residual activity,[21],94%
same,residual activity,[22],83%
same,residual activity,[23],91%
same,residual activity,[24],100%
same,residual activity,[25],100%
same,residual activity,[26],90%
same,residual activity,[27],61%
same,residual activity,[28],100%
same,residual activity,[29],100%
same,residual activity,[30],80%
same,residual activity,[31],100%
same,residual activity,[32],92%
same,residual activity,[33],100%
same,residual activity,[34],94%
same,inhibition,[35],1.86%
same,residual activity,[36],56%
same,residual activity,[37],100%
same,inhibition,[38],9.54%
same,residual activity,[39],100%
same,residual activity,[40],95%
same,residual activity,[41],100%
same,residual activity,[42],98%
same,residual activity,[43],100%
same,residual activity,[44],100%
Cc1c(NC(=O)c2cc(C(N)=O)nc3cc(F)ccc23)c(C(F)(F)F)nn1Cc1ccc(C#N)cc1 [BAY-876],residual activity,[1],100%
same,residual activity,[2],94%
same,residual activity,[3],87%
same,residual activity,[4],79%
same,residual activity,[5],59%
same,residual activity,[6],88%
same,residual activity,[7],100%
same,residual activity,[8],98%
same,residual activity,[9],60%
same,inhibition,[10],-0.745%
same,residual activity,[11],100%
same,residual activity,[12],89%
same,residual activity,[13],100%
same,residual activity,[14],76%
same,residual activity,[15],83%
same,residual activity,[16],65%
same,residual activity,[17],99%
same,residual activity,[18],85%
same,inhibition,[19],-6.9%
same,residual activity,[20],84%
same,residual activity,[21],100%
same,residual activity,[22],100%
same,residual activity,[23],80%
same,residual activity,[24],100%
same,residual activity,[25],86%
same,residual activity,[26],89%
same,residual activity,[27],100%
same,residual activity,[28],83%
same,residual activity,[29],99%
same,residual activity,[30],80%
same,residual activity,[31],87%
same,residual activity,[32],100%
same,residual activity,[33],100%
same,residual activity,[34],73%
same,inhibition,[35],-6.5%
same,residual activity,[36],100%
same,residual activity,[37],100%
same,inhibition,[38],2.64%
same,residual activity,[39],99%
same,residual activity,[40],100%
same,residual activity,[41],78%
same,residual activity,[42],99%
same,residual activity,[43],100%
same,residual activity,[44],97%
